# Measured values: patent publication US20060069132A1, “Azolecarboxamide herbicides” (priority 2004, published 2006)
# Tests used:
# [1] = test system: barnyardgrass; test: Test A pre-/postemergence herbicide test; format: in vivo, Echinochloa crus-galli; conditions: for Plant response rating, Barnyardgrass: Postemergence; for Barnyardgrass plant response rating: Preemergence
# Outline: (§1)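 Pre: seeded sandy loam, directed soil spray, compound in non-phytotoxic solvent + surfactant. Post: 1–2-leaf plants (2–10 cm), sprayed to runoff. Greenhouse ~10 d; visual injury vs untreated, 0–100 scale.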
# [2] = test system: large crabgrass; test: Test A pre-/postemergence herbicide test; format: in vivo, Digitaria sanguinalis; conditions: for Plant response rating, Crabgrass, Large: Postemergence; for Crabgrass, Large plant response rating: Preemergence
# Outline: as §1
# [3] = test system: giant foxtail; test: Test A pre-/postemergence herbicide test; format: in vivo, Setaria faberi; conditions: for Plant response rating, Foxtail, Giant: Postemergence; for Foxtail, Giant plant response rating: Preemergence
# Outline: as §1
# [4] = test system: morningglory; test: Test A pre-/postemergence herbicide test; format: in vivo, Ipomoea spp.; conditions: for Plant response rating, Morningglory: Postemergence; for Morningglory plant response rating: Preemergence
# Outline: as §1
# [5] = test system: redroot pigweed; test: Test A pre-/postemergence herbicide test; format: in vivo, Amaranthus retroflexus; conditions: for Plant response rating, Pigweed: Postemergence; for Pigweed plant response rating: Preemergence
# Outline: as §1
# [6] = test system: velvetleaf; test: Test A pre-/postemergence herbicide test; format: in vivo, Abutilon theophrasti; conditions: for Velvetleaf plant response rating: Preemergence, visual rating, 0 to 100 scale (0 no effect, 100 complete control)
# Outline: as §1
# [7] = test system: barnyardgrass; test: Test B pre-/postemergence herbicide test; format: in vivo, Echinochloa crus-galli
# Outline: (§2)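 Test chemicals in a non-phytotoxic solvent mixture with surfactant were applied preemergence to seeded species and postemergence to plants 2-18 cm tall (1- to 4-leaf stage); rice and barnyardgrass were also tested in a flooded paddy at the 2-leaf stage. Visual rating versus controls after 13-15 days in greenhouse, scale 0 (no effect) to 100 (complete control).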
# [8] = test system: Surinam grass; test: Test B pre-/postemergence herbicide test; format: in vivo, Urochloa decumbens
# Outline: (§3)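 Formulation: non-phytotoxic solvent mix with surfactant. Timing: preemergence on seed and postemergence on 2–18 cm plants, applied concurrently. Readout after 13–15 d greenhouse: visual 0–100 control rating against controls.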
# [9] = test system: cocklebur; test: Test B pre-/postemergence herbicide test; format: in vivo, Xanthium strumarium
# Outline: as §2
# [10] = test system: corn; test: Test B pre-/postemergence herbicide test; format: in vivo, Zea mays
# Outline: as §3
# [11] = test system: large crabgrass; test: Test B pre-/postemergence herbicide test; format: in vivo, Digitaria sanguinalis
# Outline: as §3
# [12] = test system: giant foxtail; test: Test B pre-/postemergence herbicide test; format: in vivo, Setaria faberi
# Outline: as §3
# [13] = test system: lambsquarters; test: Test B pre-/postemergence herbicide test; format: in vivo, Chenopodium album
# Outline: as §3
# [14] = test system: morningglory; test: Test B pre-/postemergence herbicide test; format: in vivo, Ipomoea coccinea
# Outline: as §2
# [15] = test system: pigweed; test: Test B pre-/postemergence herbicide test; format: in vivo, Amaranthus retroflexus
# Outline: as §3
# [16] = test system: rice; test: Test B pre-/postemergence herbicide test; format: in vivo, Oryza sativa; conditions: preemergence, 125 g ai/ha; 0 to 100 scale, 0 is no effect, 100 is complete control
# Outline: as §3
# [17] = test system: velvetleaf; test: Test B pre-/postemergence herbicide test; format: in vivo, Abutilon theophrasti
# Outline: as §3
# [18] = test system: blackgrass; test: Test B postemergence herbicide test; format: in vivo, Alopecurus myosuroides; conditions: scale 0 (no effect) to 100 (complete control)
# Outline: (§4)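 Paddy species grown to the 2-leaf stage under flooding; blackgrass sprayed postemergence at 2–18 cm (1- to 4-leaf stage). Plants kept in a greenhouse for 13 to 15 days, then visually rated against controls on 0 (no effect) to 100 (complete control).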
# [19] = test system: wheat; test: Test B postemergence herbicide test; format: in vivo, Triticum aestivum; parameters: key to Wheat plant response rating: 0 = no effect, 100 = complete control; conditions: scale 0 (no effect) to 100 (complete control)
# Outline: (§5)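 Postemergence plants were sprayed with formulated test chemicals at 2 to 18 cm height (1- to 4-leaf stage); paddy species were grown to the 2-leaf stage. After 13 to 15 days in a greenhouse, injury was rated visually against untreated controls on a 0–100 scale (0 = no effect, 100 = complete control).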
# [20] = test system: wild oat; test: Test B postemergence herbicide test; format: in vivo, Avena fatua; conditions: scale 0 (no effect) to 100 (complete control)
# Outline: as §5
# [21] = test system: rice; test: Test B flooded paddy test; format: in vivo, Oryza sativa; conditions: 1000 g ai/ha, visual rating, scale 0 to 100 (0 no effect, 100 complete control), 13 to 15 days
# Outline: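 Scale 0–100: zero equals no visible effect, 100 complete control, judged by eye relative to controls. Timing: 13 to 15 days in greenhouse post-treatment. Growth stage at spraying: two leaves (paddy) or one to four leaves, 2–18 cm (postemergence).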
# [22] = test system: small flower umbrella sedge; test: Test B flooded paddy test; format: in vivo, Cyperus difformis; conditions: 1000 g ai/ha, visual rating, scale 0 to 100 (0 no effect, 100 complete control), 13 to 15 days
# Outline: as §4
# [23] = test system: ducksalad; test: Test B flooded paddy test; format: in vivo, Heteranthera limosa; conditions: 1000 g ai/ha, visual rating, scale 0 to 100 (0 no effect, 100 complete control), 13 to 15 days
# Outline: as §4
# [24] = test system: barnyardgrass; test: Test B flooded paddy test; format: in vivo, Echinochloa crus-galli; conditions: 1000 g ai/ha, visual rating, scale 0 to 100 (0 no effect, 100 complete control), 13 to 15 days
# Outline: as §4
# [25] = 500 g ai/ha, 0 to 100 scale, 0 no effect, 100 complete control
# [26] = 2000 g ai/ha, 0 to 100 scale, 0 no effect, 100 complete control
# [27] = 500 g ai/ha, visual rating, 0 to 100 scale (0 no effect, 100 complete control)
# [28] = Postemergence, 500 g ai/ha, visual rating after 13 to 15 days, scale 0 (no effect) to 100 (complete control)
# [29] = Preemergence, 500 g ai/ha, scale 0 to 100
# [30] = postemergence, 125 g ai/ha, visual rating, scale 0 (no effect) to 100 (complete control)
# [31] = preemergence, 125 g ai/ha, 0 to 100 scale, 0 is no effect, 100 is complete control
# [32] = Postemergence, 500 g ai/ha, visual rating after 13 to 15 days
# [33] = postemergence, 125 g ai/ha, visual rating
compound,measurement,setting,value
CCn1nc(C(C)(C)C)cc1C(=O)Nc1cccc(C(=O)OCC(F)(F)F)c1 [Compound 83],"Plant response rating, Barnyardgrass",[1]; [25],5
same,"Plant response rating, Barnyardgrass",[1]; [26],20
same,Barnyardgrass plant response rating,[1]; [27],0
same,Barnyardgrass plant response rating,[1]; [26],0
same,"Plant response rating, Crabgrass, Large",[2]; [25],30
same,"Plant response rating, Crabgrass, Large",[2]; [26],25
same,"Crabgrass, Large plant response rating",[2]; [27],0
same,"Crabgrass, Large plant response rating",[2]; [26],0
same,"Plant response rating, Foxtail, Giant",[3]; [25],20
same,"Plant response rating, Foxtail, Giant",[3]; [26],20
same,"Foxtail, Giant plant response rating",[3]; [27],0
same,"Foxtail, Giant plant response rating",[3]; [26],0
same,"Plant response rating, Morningglory",[4]; [25],10
same,"Plant response rating, Morningglory",[4]; [26],10
same,Morningglory plant response rating,[4]; [27],30
same,Morningglory plant response rating,[4]; [26],10
same,"Plant response rating, Pigweed",[5]; [25],45
same,"Plant response rating, Pigweed",[5]; [26],55
same,Pigweed plant response rating,[5]; [27],0
same,Pigweed plant response rating,[5]; [26],0
same,"Plant response rating, Velvetleaf","[6]; Postemergence, 2000 g ai/ha, 0 to 100 scale, 0 no effect, 100 complete control",20
same,Velvetleaf plant response rating,[6]; 500 g ai/ha,0
same,Velvetleaf plant response rating,[6]; 2000 g ai/ha,0
same,"Plant response rating, Barnyardgrass",[7]; [28],50
same,Barnyardgrass plant response rating,[7]; [29],0
same,Barnyardgrass plant response rating,[7]; [30],10
same,"Plant response rating, Barnyardgrass",[7]; [31],0
same,"Plant response rating, Surinam Grass",[8]; [28],40
same,Surinam Grass plant response rating,[8]; [30],20
same,"Plant response rating, Surinam Grass",[8]; [31],0
same,"Plant response rating, Cocklebur",[9]; [28],20
same,Cocklebur plant response rating,[9]; [29],0
same,Cocklebur plant response rating,[9]; [30],0
same,"Plant response rating, Corn",[10]; [28],30
same,Corn plant response rating,[10]; [29],0
same,Corn plant response rating,[10]; [30],10
same,"Plant response rating, Corn",[10]; [31],0
same,"Plant response rating, Crabgrass, Large",[11]; [28],30
same,"Crabgrass, Large plant response rating",[11]; [29],0
same,"Crabgrass, Large plant response rating",[11]; [30],30
same,"Plant response rating, Crabgrass, Large",[11]; [31],0
same,"Plant response rating, Foxtail, Giant",[12]; [28],10
same,"Foxtail, Giant plant response rating",[12]; [29],0
same,"Foxtail, Giant plant response rating",[12]; [30],0
same,"Plant response rating, Foxtail, Giant",[12]; [31],0
same,"Plant response rating, Lambsquarters",[13]; [28],60
same,Lambsquarters plant response rating,[13]; [30],0
same,"Plant response rating, Lambsquarters",[13]; [31],0
same,"Plant response rating, Morningglory",[14]; [28],30
same,Morningglory plant response rating,[14]; [30],0
same,"Plant response rating, Morningglory",[14]; [31],0
same,"Plant response rating, Pigweed",[15]; [28],100
same,Pigweed plant response rating,[15]; [30],70
same,"Plant response rating, Pigweed",[15]; [31],0
same,"Plant response rating, Rice",[16],0
same,"Plant response rating, Velvetleaf",[17]; [28],70
same,Velvetleaf plant response rating,[17]; [30],50
same,"Plant response rating, Velvetleaf",[17]; [31],0
same,"Plant response rating, Blackgrass",[18]; [32],0
same,Blackgrass plant response rating,[18]; [33],0
same,"Plant response rating, Wheat",[19]; [32],30
same,Wheat plant response rating,[19]; [33],20
same,"Plant response rating, Oat, Wild",[20]; [32],20
same,"Oat, Wild plant response rating",[20]; [33],10
same,Rice plant response rating,[21],10
same,"Sedge, Umbrella plant response rating",[22],50
same,Ducksalad plant response rating,[23],30
same,Barnyardgrass plant response rating,[24],10
